Measured values published in ChEMBL document CHEMBL4145503, “Design, synthesis and in vitro biological evaluation of novel [1,2,3]triazolo[4,5-d]pyrimidine derivatives containing a thiosemicarbazide moiety” (Eur J Med Chem, 2018).

Experiments:
Assay type in all cases: functional, cell-based
[1] = tested on: PC-3; test: Antiproliferative activity against human PC3 cells after 72 hrs by MTT assay; settings: PC-3, 72 h
[2] = tested on: NCI-H1650; test: Antiproliferative activity against human NCI-H1650 cells after 72 hrs by MTT assay; settings: NCI-H1650, 72 h
[3] = tested on: MGC-803; test: Antiproliferative activity against human MGC803 cells after 72 hrs by MTT assay; settings: MGC-803, 72 h

Structure (SMILES)	IC50 [1]	IC50 [2]	IC50 [3]
CCCSc1nc(NNC(=S)NCc2ccccc2)c2nnn(CCc3cccs3)c2n1	> 64 µM	> 64 µM	41.1 µM
CCCSc1nc(NNC(=S)NCc2ccccc2)c2nnn(CCc3c[nH]c4ccccc34)c2n1	15.3 µM	> 64 µM	30.3 µM
O=c1[nH]cc(F)c(=O)[nH]1 [FLUOROURACIL]	27.6 µM	14.6 µM	7.86 µM
